Results from patent US9546138B2, “Pyridone derivatives and uses thereof in the treatment of tuberculosis” (priority 2012, dated 2017).
≈ marks a conversion by molar mass, not a printed value. Where two headings read alike, the source gives them in different places.

What was measured:
Experiment in all cases: microbe, parasite or virus in culture
Format in all cases: cell-based
[1] = tested on: M. smeg WT (WT inhA); conditions: Mycolicibacterium smegmatis, strain M. smeg WT, read-out: Compound MIC50
[2] = tested on: BCG WT (WT inhA); conditions: Mycobacterium tuberculosis variant bovis BCG, read-out: Compound MIC50
[3] = tested on: Mycobacterium tuberculosis H37Rv (ATCC #27294)

Compound	MIC50 ([3]; 120 h, read-out: MTB MIC50)	also measured
CCc1cc(C(N)=S)ccn1 [Ethionamide, reference compound]	–	MIC50 [1]: > 20 µM; MIC50 ([2]; BCG): 17 µM (≈ 2.83 µg/mL); MIC50 ([3]; read-out: Compound MIC50): 1.66 µM (≈ 0.276 µg/mL)
NNC(=O)c1ccncc1 [Isoniazid, isoniazid, reference compound]	–	MIC50 [1]: > 20 µM; MIC50 ([2]; strain BCG WT, WT inhA): 0.3 µM (≈ 0.0411 µg/mL); MIC50 ([3]; read-out: Compound MIC50): 0.25 µM (≈ 0.0343 µg/mL)
O=c1[nH]c(Cc2ccccc2)cc(O)c1-c1ccccc1 [PD1, 6-benzyl-4-hydroxy-3-phenylpyridin-2(1H)-one]	1.4 µM (≈ 0.388 µg/mL)	–
O=c1[nH]c(CC2CCCCC2)cc(O)c1-c1ccccc1 [PD2, 6-(cyclohexylmethyl)-4-hydroxy-3-phenylpyridin-2(1H)-one]	0.22 µM (≈ 0.0623 µg/mL)	MIC50 ([3]; read-out: Compound MIC50): 0.16 µM (≈ 0.0453 µg/mL)
O=c1[nH]c(CC2CC2)cc(O)c1-c1ccccc1 [PD3, 6-(cyclopropylmethyl)-4-hydroxy-3-phenylpyridin-2(1H)-one]	4.53 µM (≈ 1.09 µg/mL)	–
O=c1[nH]c(CC2CCCC2)cc(O)c1-c1ccccc1 [PD4, 6-(cyclopentylmethyl)-4-hydroxy-3-phenylpyridin-2(1H)-one]	0.92 µM (≈ 0.248 µg/mL)	–
O=c1[nH]c(CC2CCC2)cc(O)c1-c1ccccc1 [PD5, 6-(cyclobutylmethyl)-4-hydroxy-3-phenylpyridin-2(1H)-one]	1.19 µM (≈ 0.304 µg/mL)	–
O=c1[nH]c(CC2CCOCC2)cc(O)c1-c1ccccc1 [PD6, 4-hydroxy-3-phenyl-6-((tetrahydro-2H-pyran-4-yl)methyl)pyridin-2(1H)-one]	10.1 µM (≈ 2.88 µg/mL)	–
CC(C)CCc1cc(O)c(-c2ccccc2)c(=O)[nH]1 [PD7, 4-hydroxy-6-isopentyl-3-phenylpyridin-2(1H)-one]	1.51 µM (≈ 0.389 µg/mL)	–
CC(C)(C)Cc1cc(O)c(-c2ccccc2)c(=O)[nH]1 [PD8, 4-hydroxy-6-neopentyl-3-phenylpyridin-2(1H)-one]	10 µM (≈ 2.58 µg/mL)	–
O=c1[nH]c(CC2CCC(F)(F)CC2)cc(O)c1-c1ccccc1 [PD9, 6-((4,4-difluorocyclohexyl)methyl)-4-hydroxy-3-phenylpyridin-2(1H)-one]	1.32 µM (≈ 0.422 µg/mL)	–
CC1(C)CCC(Cc2cc(O)c(-c3ccccc3)c(=O)[nH]2)CC1 [PD10, 6-((4,4-dimethylcyclohexyl)methyl)-4-hydroxy-3-phenylpyridin-2(1H)-one]	0.02 µM (≈ 0.00623 µg/mL)	MIC50 [1]: 0.4 µM (≈ 0.125 µg/mL); MIC50 ([2]; strain BCG WT, WT inhA): 0.02 µM (≈ 0.00623 µg/mL); MIC50 ([3]; read-out: Compound MIC50): 0.05 µM (≈ 0.0156 µg/mL)
O=c1[nH]c(Cc2ccncc2)cc(O)c1-c1ccccc1 [PD11, 4-hydroxy-3-phenyl-6-(pyridin-4-ylmethyl)pyridin-2(1H)-one]	6.08 µM (≈ 1.69 µg/mL)	–
CC(C)Cc1cc(O)c(-c2ccccc2)c(=O)[nH]1 [PD12, 4-hydroxy-6-isobutyl-3-phenylpyridin-2(1H)-one]	1.9 µM (≈ 0.462 µg/mL)	MIC50 [1]: 0.67 µM (≈ 0.163 µg/mL); MIC50 ([2]; strain BCG WT, WT inhA): 0.37 µM (≈ 0.09 µg/mL); MIC50 ([3]; read-out: Compound MIC50): 1.54 µM (≈ 0.375 µg/mL)
CC(C)Cc1[nH]c(=O)c(-c2ccccc2)c(O)c1C(N)=O [PD13, 4-hydroxy-2-isobutyl-6-oxo-5-phenyl-1,6-dihydropyridine-3-carboxamide]	18.7 µM (≈ 5.35 µg/mL)	–
CC(C)Cc1cc(O)c(-c2cccc(Cl)c2)c(=O)[nH]1 [PD14, 3-(3-chlorophenyl)-4-hydroxy-6-isobutylpyridin-2(1H)-one]	2.67 µM (≈ 0.742 µg/mL)	–
CC(C)Cc1cc(O)c(-c2ccc(F)cc2)c(=O)[nH]1 [PD15, 3-(4-fluorophenyl)-4-hydroxy-6-isobutylpyridin-2(1H)-one]	6.75 µM (≈ 1.76 µg/mL)	–
CC(C)Cc1cc(O)c(-c2ccc(F)cc2F)c(=O)[nH]1 [PD17, 3-(2,4-difluorophenyl)-4-hydroxy-6-isobutylpyridin-2(1H)-one]	9.18 µM (≈ 2.56 µg/mL)	–
CC(C)Cc1cc(O)c(-c2cccc(F)c2)c(=O)[nH]1 [PD18, 3-(3-fluorophenyl)-4-hydroxy-6-isobutylpyridin-2(1H)-one]	2.69 µM (≈ 0.703 µg/mL)	–
CC(C)Cc1cc(O)c(-c2ccccc2)c(=O)n1C [PD19, 4-hydroxy-6-isobutyl-1-methyl-3-phenylpyridin-2(1H)-one]	8.14 µM (≈ 2.09 µg/mL)	–
CC1(C)CCC(Cc2cc(OCOP(=O)(O)O)c(-c3ccccc3)c(=O)[nH]2)CC1 [PD21, ((6-((4,4-dimethylcyclohexyl)methyl)-2-oxo-3-phenyl-1,2-dihydropyridin-4-yl)oxy)methyl dihydrogen phosphate]	3.99 µM	–
CC1(C)CCC(Cc2cc(OP(=O)(O)O)c(-c3ccccc3)c(=O)[nH]2)CC1 [PD22, 6-((4,4-dimethylcyclohexyl)methyl)-2-oxo-3-phenyl-1,2-dihydropyridin-4-yl dihydrogen phosphate]	1.72 µM	–
